Laboratory results from US10538794B2, “Oligosaccharide libraries and methods of production” (Emory University, priority 2016, dated 2020).
Entries after “also recorded” stand apart in the source; their conditions may differ.

Experiments:
[1] = tested on: cells; experiment: CORA with the isomer Ac3GlcNAc-β-Bn: secretion of Bn-O-glycans; format: cell-based
Procedure: CORA is an approach for both amplifying and profiling the mucin-type O-glycome in living cells. […] For example, MS analyses of β-eliminated O-glycans from WEHI-3 cells have not identified sialyl-LeX on core 2 O-glycans, a critical component on PSGL-1 recognized by P-selectin, which binds WEHI-3 cells. […] Thus the novel structures identified are natural O-glycans, mostly present on glycoproteins at low abundance.
CORA was performed on cells with mutant or wild-type C1galt1c1 (Cosmc), a chaperone known to be essential for T-synthase activity. Only cells with functional Cosmc and active T-synthase secreted Bn-O-glycans when we administered Ac3GalNAc-α-Bn (FIG. 2A-D).
Compound was added to complete media, and media was collected after incubation with cells. Media was run over a 10-kDa centrifugal filter (Amicon Ultra 4, Millipore) for ˜30 min at 2,465 g, and flow-through was collected. Bn-O-glycans were subsequently purified from flow-through with a Sep-Pak 3-cc C18 cartridge (Waters) by gravity chromatography. […]
(§1) Dried samples were permethylated. […] Spotted: 0.5 μl of matrix (10 mg/ml […] (Sigma), 50% (vol/vol) acetonitrile, 0.1% (vol/vol) TFA) and 0.5 μl of sample on an Anchorchip target plate, air dried the spots and analyzed by MALDI-TOF-MS using an Ultraflex-II TOF-TOF system (Bruker Daltonics). […]

[2] = tested on: breast cancer cells (MDA-MB-231); experiment: CORA: Bn-O-glycans in media of MDA-MB-231 cells incubated with precursor, MALDI-TOF-MS; format: cell-based; settings: MDA-MB-231, 0-250 μM; for lowest concentration at which Bn-O-glycans with the predicted sialylated core 2 structure were observed: 3 d
Procedure: (§2) To assess whether peracetylation of Bn-α-GalNAc enhances uptake and subsequent sensitivity, breast cancer cells (MDA-MB-231) were incubated with 0-250 μM Ac3GalNAc-α-Bn or Bn-α-GalNAc for 3 d. […] Further, peracetylation of Bn-α-GalNAc was stable in complete media for at least 3 d. Thus, peracetylation improved sensitivity, and at such low concentrations potential side effects should be limited, as explored below.
To optimize conditions, MDA-MB-231 cells were cultured with 0-250 μM Ac3GalNAc-α-Bn for 2-4 d. […] Thus, CORA should be performed with low concentrations of Ac3GalNAc-α-Bn. For most subsequent studies, cells were incubated with 50 μM Ac3GalNAc-α-Bn for 3 d.
Ac3GalNAc-α-Bn or Bn-α-GalNAc was dissolved to 50 or 100 mM in DMSO and further diluted to 5-250 μM in complete media with 5% (vol/vol) FBS, except for HUVEC and human dermal fibroblast cultures, which were incubated in ATCC preformulated media. Media with compound was administered 1 d (most cells) or 2 d (HUVECs and human dermal fibroblasts) after seeding. Cells were then incubated for 2-4 d with compound before media was collected.
(§3) Compound was added to complete media, and media was collected after incubation with cells. Media was run over a 10-kDa centrifugal filter (Amicon Ultra 4, Millipore) for ˜30 min at 2,465 g, and flow-through was collected. Bn-O-glycans were subsequently purified from flow-through with a Sep-Pak 3-cc C18 cartridge (Waters) by gravity chromatography. The column was equilibrated by two washes with 2 ml of acetonitrile and four washes with 2 ml of 0.1% (vol/vol) trifluoracetic acid (TFA). Media was applied and the column was washed four times with 2 ml of 0.1% (vol/vol) TFA for each wash. Bn-O-glycans were then eluted with two 1.5-ml applications of 50% (vol/vol) acetonitrile, 0.1% (vol/vol) TFA. Eluent was divided into three fractions, concentrated by CentriVap to remove organic solvents, and lyophilized.
Dried samples were permethylated. NaOH-DMSO (200 μl) slurry was added followed by 200 μl of methyl iodide to samples. Samples were shaken for 30 min and then spun down at 5,000 g for 5 min. Supernatant was collected and chloroform extraction was performed to isolate permethylated glycans. Chloroform (500 μl) and 500 μl of water was added to supernatant. The samples were mixed and centrifuged at 5,000 g for 1 min. Two more washes were performed with 500 μl of water each before evaporating chloroform by CentriVap for 30 min. Bn-O-glycans were then resuspended in 25 or 50 μl of 50% (vol/vol) methanol. Spotted: 0.5 μl of matrix (10 mg/ml […] (Sigma), 50% (vol/vol) acetonitrile, 0.1% (vol/vol) TFA) and 0.5 μl of sample on an Anchorchip target plate, air dried the spots and analyzed by MALDI-TOF-MS using an Ultraflex-II TOF-TOF system (Bruker Daltonics). […]

[3] = Stability of peracetylation in complete media; format: physicochemical
Procedure: as §2

[4] = tested on: HEK293; experiment: CORA: Bn-O-glycans from media of HEK293 cells, MALDI-TOF-MS; format: cell-based; settings: HEK293, 50 μM, 3 d
Procedure: (§4) Adherent (HEK293) and suspension (Molt-4) cells were cultured in complete media containing 50 μM Ac3GalNAc-α-Bn or vehicle (dimethyl sulfoxide (DMSO)) for 3 d. Putative Bn-O-glycans from the media were separated from larger material with a cutoff membrane, purified by C18 chromatography, permethylated and analyzed by MALDI-TOF-MS. Here as elsewhere, the permethylated nonsulfated and/or nonphosphorylated glycans were analyzed.
as §3, with “Bn-O-glycans were then eluted with two 1.5-ml applications of 50% (vol/vol) acetonitrile, 0.1% (vol/vol) TFA. Eluent was divided into three fractions, concentrated by CentriVap to remove organic solvents, and lyophilized.” left out
as §1

[5] = tested on: Molt-4; experiment: CORA: Bn-O-glycans from media of Molt-4 cells, MALDI-TOF-MS; format: cell-based; settings: Molt-4, 50 μM, 3 d
Procedure: as §4
as §3, with “Bn-O-glycans were then eluted with two 1.5-ml applications of 50% (vol/vol) acetonitrile, 0.1% (vol/vol) TFA. Eluent was divided into three fractions, concentrated by CentriVap to remove organic solvents, and lyophilized.” left out
as §1

SMILES | Bn-O-glycans secreted by cells incubated with the compound [1] | effect of increasing concentration on Bn-O-glycan abundance ([2]; 2-4 d) | lowest concentration at which Bn-O-glycans in culture media were seen ([2]; 2 d) | lowest concentration at which Bn-O-glycans with the predicted sialylated core 2 structure were observed [2] | peracetylation stable in complete media [3] | uptake and modification of the O-glycan precursor by glycosyltransferases (core 1- and core 2-based Bn-O-glycan compositions observed) [4] | uptake and modification of the O-glycan precursor by glycosyltransferases (core 1- and core 2-based Bn-O-glycan compositions observed) [5]
CC(=O)N[C@H]1[C@H](OCc2ccccc2)O[C@H](COC(C)=O)[C@@H](OC(C)=O)[C@@H]1OC(C)=O [Ac3GlcNAc-β-Bn] | no glycans or a trisaccharide (Sia-Gal-GlcNAc-Bn) only; also recorded: no Bn-O-glycans or only the simple trisaccharide Neu5Ac-Gal-GlcNAc-Bn | – | – | – | – | – | –
CC(=O)N[C@H]1[C@@H](OCc2ccccc2)O[C@H](COC(C)=O)[C@H](OC(C)=O)[C@@H]1OC(C)=O [Ac3GalNAc-α-Bn, peracetylated benzyl-α-N-acetylgalactosamine] | – | shifted abundance from disialylated to monosialylated core 2 | 5 µM | 25 µM | at least 3 d | efficient uptake and modification | efficient uptake and modification
CC(=O)N[C@H]1[C@@H](OCc2ccccc2)O[C@H](CO)[C@H](O)[C@@H]1O [Bn-α-GalNAc, reference compound] | – | – | – | 250 µM | – | – | –
